Assay results taken from ChEMBL document CHEMBL4689842, “EUbOPEN Chemogenomics Library wave 1” (2021).

How the values were obtained:
Assay type in all cases: toxicity, cell-based
Fibroblast = assay: Incucyte cell viability with human fibroblast; conditions: 10 µM, compound concentration 10 uM
HEK-293T = assay: Incucyte cell viability with HEK293T; conditions: human, 10 µM, compound concentration 10 uM
U2OS = assay: Incucyte cell viability with U2OS; conditions: human, 10 µM, compound concentration 10 uM
[1] = 0 h, replicate number 1, timepoint 0 hours
[2] = 6 h, replicate number 1, timepoint 6 hours
[3] = 6 h, replicate number 2, timepoint 6 hours
[4] = 12 h, replicate number 1, timepoint 12 hours
[5] = 18 h, replicate number 1, timepoint 18 hours
[6] = 24 h, replicate number 1, timepoint 24 hours
[7] = 0 h, replicate number 2, timepoint 0 hours
[8] = 12 h, replicate number 2, timepoint 12 hours
[9] = 24 h, replicate number 2, timepoint 24 hours
Further: filed as whole numbers so only -1 and 0 and 1 occur.

Row | SMILES | Growth Rate (Fibroblast; [1]) | Growth Rate (Fibroblast; [2]) | Growth Rate (Fibroblast; [4]) | Growth Rate (Fibroblast; [5]) | Growth Rate (Fibroblast; [6]) | Growth Rate (HEK-293T; [1]) | Growth Rate (HEK-293T; [7]) | Growth Rate (HEK-293T; [2]) | Growth Rate (HEK-293T; [4]) | Growth Rate (HEK-293T; [8]) | Growth Rate (HEK-293T; [5]) | Growth Rate (HEK-293T; [6]) | Growth Rate (U2OS; [1]) | Growth Rate (U2OS; [3]) | Growth Rate (U2OS; [4]) | Growth Rate (U2OS; [5]) | Growth Rate (U2OS; [6]) | Growth Rate (U2OS; [2]) | Growth Rate (Fibroblast; [7]) | Growth Rate (HEK-293T; [9]) | further results
1 | CNC(=NCCSCc1csc(N=C(N)N)n1)NC#N [TIOTIDINE] | 0 | 1 | 0 | 0 | 0 | 1 | 0 | 0 | 1 | 0 | 0 | 0 | 0 | 0 | 1 | 0 | 1 | – | – | – | Growth Rate (Fibroblast; [3]): 0; Growth Rate (U2OS; [8]): 0; Growth Rate (U2OS; 18 h, replicate number 2, timepoint 18 hours): 1
2 | C[C@@H]1CCN(C(=O)CC#N)C[C@@H]1N(C)c1ncnc2[nH]ccc12.O=C(O)CC(O)(CC(=O)O)C(=O)O [TOFACITINIB CITRATE] | 0 | – | 1 | 1 | 1 | 1 | 0 | 0 | 0 | 1 | 1 | 1 | 0 | – | 0 | 0 | 0 | 0 | – | – | –
3 | CN1C(=O)[C@@H](N2CCc3cn(Cc4ccccc4)nc3C2=O)COc2ccccc21 [TP-030-1] | – | 0 | 0 | 0 | 0 | 0 | 1 | – | – | – | – | – | – | – | 1 | 1 | 1 | 1 | 1 | 1 | Growth Rate (U2OS; [7]): 0
4 | CC[C@@H]1[C@H](F)C(=O)N[C@@H]1COc1nccc2cc(C(N)=O)c(OC)cc12 [ZIMLOVISERTIB] | – | 0 | 0 | 0 | 0 | 0 | – | – | – | 1 | – | – | 0 | 1 | 0 | 0 | 0 | 0 | 0 | 1 | –
